The target in series [1] is T1, Nuclear receptor ROR-gamma (Homo sapiens, UniProt P51449).
T1 sequence (P51449 whole entry): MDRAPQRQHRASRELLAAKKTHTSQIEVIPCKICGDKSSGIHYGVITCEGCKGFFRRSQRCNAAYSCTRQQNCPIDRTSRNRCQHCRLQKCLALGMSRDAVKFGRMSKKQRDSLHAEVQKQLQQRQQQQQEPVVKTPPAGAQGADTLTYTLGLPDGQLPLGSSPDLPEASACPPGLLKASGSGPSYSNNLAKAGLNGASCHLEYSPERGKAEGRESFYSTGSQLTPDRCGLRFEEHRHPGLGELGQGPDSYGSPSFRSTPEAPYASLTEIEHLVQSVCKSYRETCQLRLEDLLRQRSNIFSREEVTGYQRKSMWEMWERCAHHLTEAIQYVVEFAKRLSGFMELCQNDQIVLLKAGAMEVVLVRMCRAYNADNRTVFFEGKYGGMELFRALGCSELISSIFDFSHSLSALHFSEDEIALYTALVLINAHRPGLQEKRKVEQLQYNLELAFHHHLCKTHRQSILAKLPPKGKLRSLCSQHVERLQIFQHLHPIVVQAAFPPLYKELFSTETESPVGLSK
Description: Inhibition of human RORgamma ligand binding domain (Serine 253 to Lysine 518 residues) expressed in CHOK1 cells incubated for 2 days by Gal4 luciferase reporter gene assay

For series [2], the target named is T2, Nuclear receptor ROR-gamma (Mus musculus, UniProt P51450).
T2 sequence (P51450 whole entry): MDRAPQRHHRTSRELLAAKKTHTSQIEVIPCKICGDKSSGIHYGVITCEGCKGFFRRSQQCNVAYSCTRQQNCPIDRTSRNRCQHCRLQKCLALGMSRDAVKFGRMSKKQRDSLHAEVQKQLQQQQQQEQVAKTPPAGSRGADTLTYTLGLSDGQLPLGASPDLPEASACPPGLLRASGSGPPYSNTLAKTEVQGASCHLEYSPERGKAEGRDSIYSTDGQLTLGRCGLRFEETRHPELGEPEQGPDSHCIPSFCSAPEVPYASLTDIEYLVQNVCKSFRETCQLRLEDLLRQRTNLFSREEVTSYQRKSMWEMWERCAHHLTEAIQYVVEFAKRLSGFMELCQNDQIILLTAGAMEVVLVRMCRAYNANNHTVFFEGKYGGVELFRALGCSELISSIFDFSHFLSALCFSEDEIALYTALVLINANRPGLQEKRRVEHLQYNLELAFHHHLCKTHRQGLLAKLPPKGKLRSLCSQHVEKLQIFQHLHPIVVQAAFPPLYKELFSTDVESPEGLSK
As to the kind of experiment: Inhibition of mouse RORgamma ligand binding domain (Isoleucine 251 to Lysine 516) expressed in CHOK1 cells incubated for 2 days by Gal4 luciferase reporter gene assay. The series is classed as cell-based, CHO-K1.

The target of series [3] is Cytochrome P450 3A4 (Homo sapiens, UniProt P08684). As to the kind of experiment: Inhibition of human CYP3A4.
Cytochrome P450 3A4, sequence (P08684 whole entry): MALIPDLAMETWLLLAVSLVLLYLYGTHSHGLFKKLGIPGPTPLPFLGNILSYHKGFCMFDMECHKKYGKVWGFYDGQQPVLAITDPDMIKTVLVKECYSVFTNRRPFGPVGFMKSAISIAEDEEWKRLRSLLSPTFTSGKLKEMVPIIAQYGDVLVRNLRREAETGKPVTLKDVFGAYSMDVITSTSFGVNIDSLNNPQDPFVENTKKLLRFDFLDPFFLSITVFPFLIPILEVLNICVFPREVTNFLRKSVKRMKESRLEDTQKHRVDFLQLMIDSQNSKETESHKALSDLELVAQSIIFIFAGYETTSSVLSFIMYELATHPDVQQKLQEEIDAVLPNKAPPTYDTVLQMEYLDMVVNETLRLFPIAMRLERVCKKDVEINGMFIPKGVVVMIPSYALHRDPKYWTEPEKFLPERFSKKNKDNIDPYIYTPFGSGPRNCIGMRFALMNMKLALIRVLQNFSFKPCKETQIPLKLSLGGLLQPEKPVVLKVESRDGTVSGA
Series [4] is described as follows: Metabolic stability in human liver microsomes assessed as parent compound remaining incubated for 10 mins. The series is classed as ADME. The note with it: read-out: Stability. A general note: Microsomes from liver hold many membrane-bound enzymes, among them those of drug oxidation.
For series [5], the target named is T1, Nuclear receptor ROR-gamma. The series can be described thus: Inhibition of human GST-tagged RORgamma ligand binding domain (253 to 518 residues) expressed in sf9 cells using biotin-EEPSLLKKLLLAPA by FRET assay.

One molecule from ChEMBL document CHEMBL3774309, “SAR Exploration Guided by LE and Fsp(3): Discovery of a Selective and Orally Efficacious RORγ Inhibitor” (ACS Med Chem Lett, 2016) can be followed below.

For `CCn1c(SCC(=O)Nc2cccc3ccccc23)nnc1C1Cc2ccccc2C1`, the results for the EC50 in series [1], in series [2] and in series [5] were 1700 nM, 700 nM and 850 nM, respectively. Further, in series [3], the midpoint of inhibition, the IC50, lay at 4000 nM. The remaining at 10 min in series [4] amounted to 18%.
